Source: PubChem BioAssay AID248 (DTP/NCI, 2004)
Several values for one entry are separate records, joined by “and”; a condition that tells them apart may be missing. Equal entries are not always repeated. Inconclusive results and toxic doses are left out. No stated cut-off is given here; in the data, active means T/C of 150% or more; inactive means T/C below 125%.

Tested on: L1210 leukemia ip in BDF1 mice, survival T/C
Assay: NCI In Vivo Anticancer Drug Screen. Data for tumor model L1210 Leukemia (intraperitoneal) in B6D2F1 (BDF1) mice
Conditions: endpoint: mean survival time, higher = longer survival
How it was run: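 Transplanted-tumor mice were given test agent; controls received vehicle only. Survival readings from the two groups were divided (treated over control).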

[1] = dose: 100.0 mg/kg/injection, schedule: Q01DX001 (ip), vehicle: saline
[2] = dose: 200.0 mg/kg/injection, schedule: Q01DX001 (ip), vehicle: saline
[3] = dose: 400.0 mg/kg/injection, schedule: Q01DX001 (ip), vehicle: saline
[4] = dose: 50.0 mg/kg/injection, schedule: Q01DX001 (ip), vehicle: saline
[5] = dose: 100.0 mg/kg/injection, schedule: Q04DX003 (ip), vehicle: saline with Tween-80
[6] = dose: 200.0 mg/kg/injection, schedule: Q04DX003 (ip), vehicle: saline with Tween-80
[7] = dose: 400.0 mg/kg/injection, schedule: Q04DX003 (ip), vehicle: saline with Tween-80
[8] = dose: 100.0 mg/kg/injection, schedule: Q04DX003 (ip), vehicle: saline
[9] = dose: 200.0 mg/kg/injection, schedule: Q04DX003 (ip), vehicle: saline
[10] = dose: 400.0 mg/kg/injection, schedule: Q04DX003 (ip), vehicle: saline
[11] = dose: 100.0 mg/kg/injection, schedule: Q04DX002 (ip), vehicle: Klucel (hydroxypropylcellulose) (HPC)
[12] = dose: 200.0 mg/kg/injection, schedule: Q04DX002 (ip), vehicle: Klucel (hydroxypropylcellulose) (HPC)
[13] = dose: 400.0 mg/kg/injection, schedule: Q04DX002 (ip), vehicle: Klucel (hydroxypropylcellulose) (HPC)
[14] = dose: 100.0 mg/kg/injection, schedule: Q01DX009 (ip), vehicle: saline with Tween-80
[15] = dose: 200.0 mg/kg/injection, schedule: Q01DX009 (ip), vehicle: saline with Tween-80

Measured: T/C

Fc1ccc(-n2ncc3c2-c2ccccc2CCC3)cc1
inactive: [1] 108 % of control | [2] 104 % of control | [3] 108 % of control

CC12CCC(C1)C(C)(C)/C2=N\N=C(N)N (stereo unspecified)
inactive: dose: 15.0 mg/kg/injection, schedule: Q01DX Z (ip), vehicle: saline 93 % of control | dose: 30.0 mg/kg/injection, schedule: Q01DX Z (ip), vehicle: saline 103 % of control | dose: 60.0 mg/kg/injection, schedule: Q01DX Z (ip), vehicle: saline 93 % of control | dose: 120.0 mg/kg/injection, schedule: Q01DX Z (ip), vehicle: saline 97 % of control | dose: 188.0 mg/kg/injection, schedule: Q01DX Z (oral), vehicle: saline 103 % of control | dose: 375.0 mg/kg/injection, schedule: Q01DX Z (oral), vehicle: saline 105 % of control | dose: 750.0 mg/kg/injection, schedule: Q01DX Z (oral), vehicle: saline 91 % of control

O=C(Cc1cc2c(cc1[N+](=O)[O-])OCO2)c1c[nH]c2ccc(Br)cc12
inactive: [4] 98 % of control | [1] 92 % of control | [2] 98 % of control | [3] 95 % of control

CCCCS(=O)(=O)Oc1ccc(N)c([N+](=O)[O-])c1
inactive: [5] 101 % of control | [6] 101 % of control | [7] 88 % of control

CN(C)CCCN1CCC2(CC[Si](C)(C)CC2)C1
inactive: [1] 94 % of control

O=C(NCCCl)NC1C2CC3CC(C2)CC1C3 (stereo unspecified)
inactive: dose: 75.0 mg/kg/injection, schedule: Q01DX001 (ip), vehicle: other 93 % of control | dose: 150.0 mg/kg/injection, schedule: Q01DX001 (ip), vehicle: other 89 % of control | dose: 300.0 mg/kg/injection, schedule: Q01DX001 (ip), vehicle: other 89 % of control

COc1ccc(CCOC(C)=O)cc1
inactive: dose: 100.0 mg/kg/injection, schedule: Q04DX002 (ip), vehicle: saline 97 % of control | dose: 200.0 mg/kg/injection, schedule: Q04DX002 (ip), vehicle: saline 102 % of control | dose: 400.0 mg/kg/injection, schedule: Q04DX002 (ip), vehicle: saline 102 % of control

O=C1OC(c2ccc([N+](=O)[O-])cc2)Sc2ccccc21 (stereo unspecified)
inactive: dose: 100.0 mg/kg/injection, schedule: Q01DX009 (ip), vehicle: saline 98 % of control | [8] 106 % of control | dose: 200.0 mg/kg/injection, schedule: Q01DX009 (ip), vehicle: saline 94 % of control | [9] 108 % of control | dose: 400.0 mg/kg/injection, schedule: Q01DX009 (ip), vehicle: saline 91 % of control | [10] 97 % of control

CC(=O)SCCCCl
inactive: [8] 105 % of control | [9] 101 % of control | [10] 102 % of control

N#CCC(O)(c1ccccc1)c1ccccc1
inactive: [4] 102 % of control | [1] 98 % of control | [2] 98 % of control | [3] 104 % of control

Nc1nc(O)c(N2C(=O)c3ccccc3C2=O)c(=O)[nH]1
inactive: dose: 25.0 mg/kg/injection, schedule: Q04DX003 (ip), vehicle: Klucel (hydroxypropylcellulose) (HPC) 93 % of control | dose: 50.0 mg/kg/injection, schedule: Q04DX003 (ip), vehicle: Klucel (hydroxypropylcellulose) (HPC) 96 % of control | dose: 100.0 mg/kg/injection, schedule: Q04DX003 (ip), vehicle: Klucel (hydroxypropylcellulose) (HPC) 96 % of control

CCCNC(C)(C)C(SS)c1ccc(C(F)(F)F)cc1 (stereo unspecified)
inactive: dose: 12.5 mg/kg/injection, schedule: Q01DX009 (ip), vehicle: other 89 % of control | dose: 12.5 mg/kg/injection, schedule: Q04DX003 (ip), vehicle: other 94 % of control | dose: 25.0 mg/kg/injection, schedule: Q01DX009 (ip), vehicle: other 95 % of control | dose: 25.0 mg/kg/injection, schedule: Q04DX003 (ip), vehicle: other 96 % of control | dose: 50.0 mg/kg/injection, schedule: Q01DX009 (ip), vehicle: other 95 % of control | dose: 50.0 mg/kg/injection, schedule: Q04DX003 (ip), vehicle: other 89 % of control

Cc1cccc(SC(=O)Nc2cccc(Cl)c2C)c1
inactive: dose: 25.0 mg/kg/injection, schedule: Q01DX009 (ip), vehicle: gum acacia 100 % of control | dose: 50.0 mg/kg/injection, schedule: Q01DX009 (ip), vehicle: gum acacia 99 % of control | dose: 100.0 mg/kg/injection, schedule: Q01DX009 (ip), vehicle: gum acacia 97 % of control and 89 % of control

CC(=O)OC1CCC2(C)C(CCC3C2CCC2(C)C(C(C)C(=O)O)CCC32)C1 (stereo unspecified)
inactive: [11] 100 % of control | [5] 104 % of control | [12] 97 % of control | [6] 98 % of control | [13] 94 % of control | [7] 93 % of control

COc1ccc(NC(=O)NC2CCCCC2)c(Cl)c1
inactive: [11] 97 % of control | [12] 102 % of control | [13] 94 % of control

CN(C)CCCN=Cc1ccccc1O.CN(C)CCCN=Cc1ccccc1O.[Ni+2]
inactive: dose: 6.25 mg/kg/injection, schedule: Q04DX003 (ip), vehicle: saline with Tween-80 100 % of control | dose: 12.5 mg/kg/injection, schedule: Q04DX003 (ip), vehicle: saline with Tween-80 94 % of control | dose: 25.0 mg/kg/injection, schedule: Q04DX003 (ip), vehicle: saline with Tween-80 101 % of control

C/C(=N/N(C)C)c1cccc(C(F)(F)F)c1
inactive: [8] 98 % of control | [9] 116 % of control

CCCCCCCCCCCCCCCCCCO
inactive: [14] 99 % of control | [15] 92 % of control | dose: 400.0 mg/kg/injection, schedule: Q01DX009 (ip), vehicle: saline with Tween-80 87 % of control

CSc1ccccc1N.[Cl][Cu][Cl]
inactive: dose: 5.0 mg/kg/injection, schedule: Q01DX001 (ip), vehicle: saline 103 % of control | dose: 10.0 mg/kg/injection, schedule: Q01DX001 (ip), vehicle: saline 115 % of control

O=C(Nc1cccc(C2=NCCN2)c1)Nc1cccc(C2=NCCN2)c1
inactive: dose: 6.0 mg/kg/injection, schedule: Q01DX Z (ip), vehicle: water 104 % of control | dose: 12.0 mg/kg/injection, schedule: Q01DX Z (ip), vehicle: water 101 % of control | dose: 25.0 mg/kg/injection, schedule: Q01DX Z (ip), vehicle: water 97 % of control

CN1C(=O)NC(C)(c2cccs2)C1=O (stereo unspecified)
inactive: [14] 112 % of control | [5] 99 % of control | [15] 113 % of control | [6] 106 % of control | [7] 97 % of control

CCOP1(=O)NC(=O)C=C(C)N1 (stereo unspecified)
inactive: dose: 60.0 mg/kg/injection, schedule: Q04DX002 (ip), vehicle: sodium bicarbonate 102 % of control | dose: 120.0 mg/kg/injection, schedule: Q04DX002 (ip), vehicle: sodium bicarbonate 97 % of control

CCc1cc2oc(C)c(C)c2c(N=Nc2ccccc2OC)c1O
inactive: [11] 105 % of control | [12] 102 % of control | [13] 102 % of control

Cc1c(F)cccc1C(=O)O
inactive: dose: 100.0 mg/kg/injection, schedule: Q01DX009 (ip), vehicle: carboxymethylcellulose (CMC) 101 % of control and 102 % of control | dose: 100.0 mg/kg/injection, schedule: Q04DX002 (ip), vehicle: carboxymethylcellulose (CMC) 100 % of control | dose: 100.0 mg/kg/injection, schedule: Q04DX003 (ip), vehicle: carboxymethylcellulose (CMC) 103 % of control | dose: 200.0 mg/kg/injection, schedule: Q01DX009 (ip), vehicle: carboxymethylcellulose (CMC) 102 % of control and 87 % of control | dose: 200.0 mg/kg/injection, schedule: Q04DX002 (ip), vehicle: carboxymethylcellulose (CMC) 93 % of control and 105 % of control | dose: 200.0 mg/kg/injection, schedule: Q04DX003 (ip), vehicle: carboxymethylcellulose (CMC) 103 % of control | dose: 400.0 mg/kg/injection, schedule: Q01DX009 (ip), vehicle: carboxymethylcellulose (CMC) 97 % of control and 90 % of control | dose: 400.0 mg/kg/injection, schedule: Q04DX002 (ip), vehicle: carboxymethylcellulose (CMC) 93 % of control and 102 % of control | dose: 400.0 mg/kg/injection, schedule: Q04DX003 (ip), vehicle: carboxymethylcellulose (CMC) 101 % of control

CCCCCCCC(=O)N1CCOCC1
inactive: dose: 50.0 mg/kg/injection, schedule: Q04DX003 (ip), vehicle: saline with Tween-80 96 % of control
